Test results reported in patent US20190255086A1, “Compositions and Methods for Treating an Infection” (CMPD Licensing, LLC, priority 2015, published 2019).

Experiments:
[1] = test system: Aspergillus fumigatus; test: Expected efficacy of anti-fungal agents against various fungi (Table 4)
[2] = test system: Blastomyces dermatitidis; test: as above
[3] = test system: Candida species; test: as above
[4] = test system: Coccidioides immitis; settings: expected efficacy
[5] = test system: Cryptococcus neoformans; test: Expected efficacy of anti-fungal agents against various fungi (Table 4)
[6] = test system: Histoplasma duboisii; settings: expected efficacy
[7] = test system: Sporothrix schenckii; test: Expected efficacy of anti-fungal agents against various fungi (Table 4)
[8] = test system: Trichophyton mentagrophytes; test: as above
[9] = test system: Trichophyton rubrum; test: as above
[10] = test system: Aspergillus niger; test: as above
[11] = test system: Aspergillus terreus; test: as above
[12] = test system: Leishmania donovani; test: as above

Measured: Efficacy of various antifungal agents

CCC(C)n1ncn(-c2ccc(N3CCN(c4ccc(OC[C@H]5CO[C@](Cn6cncn6)(c6ccc(Cl)cc6Cl)O5)cc4)CC3)cc2)c1=O (mixture of isomers) [Itraconazole]
not listed: [10] | [11] | [12]
yes: all other assays above

C[C@@H]1[C@H](O)[C@@H](C)/C=C/C=C/C=C/C=C/C=C/C=C/C=C/[C@H](O[C@@H]2O[C@H](C)[C@@H](O)[C@H](N)[C@@H]2O)C[C@@H]2O[C@](O)(C[C@@H](O)C[C@@H](O)[C@H](O)CC[C@@H](O)C[C@@H](O)CC(=O)O[C@H]1C)C[C@H](O)[C@H]2C(=O)O [Amphotericin]
not listed: [6] | [7] | [8] | [9]
yes: all other assays above
